In publication PMC6934681, “Small molecule allosteric uncoupling of microtubule depolymerase activity from motility in human Kinesin-5 during mitotic spindle assembly” (Scientific Reports, 2019):

Biological target: T1, Eg5 (human Kinesin-5) (Homo sapiens, UniProt P52732)
T1 construct: gene KIF11; motor domain (residues 1–369); with microtubules (bovine brain tubulin)
T1 sequence (P52732 1-369): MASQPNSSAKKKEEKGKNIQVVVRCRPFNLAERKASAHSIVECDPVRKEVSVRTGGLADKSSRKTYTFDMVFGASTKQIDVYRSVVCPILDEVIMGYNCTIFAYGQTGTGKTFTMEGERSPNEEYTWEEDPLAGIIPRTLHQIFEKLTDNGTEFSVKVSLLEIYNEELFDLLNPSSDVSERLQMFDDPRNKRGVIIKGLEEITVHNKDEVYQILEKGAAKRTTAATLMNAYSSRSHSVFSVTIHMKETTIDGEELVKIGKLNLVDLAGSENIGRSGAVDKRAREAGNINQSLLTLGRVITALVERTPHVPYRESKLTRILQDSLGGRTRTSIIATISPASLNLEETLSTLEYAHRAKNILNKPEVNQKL
Experiment: microtubule depolymerization turbidity assay with purified Eg5 motor domain, single concentration […] AMPPNP
Assay type: biochemical

Nc1ncnc2c1ncn2[C@@H]1O[C@H](CO[P@](=O)(O)O[P@](=O)(O)NP(=O)(O)O)[C@@H](O)[C@H]1O [AMP, AMPPNP] was tested, and the “microtubule depolymerization turbidity assay with purified Eg5 motor domain, sin” value was “treatment with excess orthosteric inhibitor, AMPPNP, completely inhibited its microtubule depolymerization ability”.
